Test results reported in ChEMBL document CHEMBL4312005, “Optimization of pyrrolizine-based Schiff bases with 4-thiazolidinone motif: Design, synthesis and investigation of cytotoxicity and anti-inflammatory potency” (Eur J Med Chem, 2020).

Experiments:
Set-up in all cases: scale not given: the % may be the effect or the level left
[1] = target: AMP-activated protein kinase (AMPK) alpha-1/beta-1/gamma-1 (Homo sapiens) (UniProt P54619+Q9Y478+Q13131); experiment: Inhibition of recombinant human C-terminal His-tagged full length AMPK alpha1/beta1/gamma1 expressed in baculovirus infected Sf9 insect cells assessed as enzyme activity incubated for 15 mins by [gamma-33]ATP based scintillation counting method relative to control
[2] = target: Tyrosine-protein kinase Blk (Homo sapiens) (UniProt P51451); experiment: Inhibition of recombinant human N-terminal GST-tagged full length BLK expressed in baculovirus infected Sf9 insect cells assessed as enzyme activity incubated for 15 mins by [gamma-33]ATP based scintillation counting method relative to control
[3] = target: T1, Dual specificity tyrosine-phosphorylation-regulated kinase 3 (Homo sapiens) (UniProt O43781); experiment: Inhibition of DYRK3 (unknown origin) assessed as enzyme activity incubated for 15 mins by [gamma-33]ATP based scintillation counting method relative to control
T1 sequence (whole entry): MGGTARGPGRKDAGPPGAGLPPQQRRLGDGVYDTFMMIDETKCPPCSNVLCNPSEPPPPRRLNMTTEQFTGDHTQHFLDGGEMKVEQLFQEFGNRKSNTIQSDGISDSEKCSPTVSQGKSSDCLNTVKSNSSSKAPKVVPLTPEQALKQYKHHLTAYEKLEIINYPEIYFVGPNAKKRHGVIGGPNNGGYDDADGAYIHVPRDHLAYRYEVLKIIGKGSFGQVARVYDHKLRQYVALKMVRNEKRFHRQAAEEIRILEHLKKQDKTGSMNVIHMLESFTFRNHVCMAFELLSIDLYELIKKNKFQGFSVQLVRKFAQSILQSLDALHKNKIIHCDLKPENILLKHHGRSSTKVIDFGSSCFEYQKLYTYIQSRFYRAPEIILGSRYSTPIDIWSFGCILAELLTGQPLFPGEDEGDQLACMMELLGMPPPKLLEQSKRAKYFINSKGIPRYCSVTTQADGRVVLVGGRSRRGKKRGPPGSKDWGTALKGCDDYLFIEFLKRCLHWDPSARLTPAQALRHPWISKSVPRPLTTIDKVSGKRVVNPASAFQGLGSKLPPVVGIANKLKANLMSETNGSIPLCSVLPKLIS

[4] = target: T2, 3-phosphoinositide-dependent protein kinase 1 (Homo sapiens) (UniProt O15530); experiment: Inhibition of recombinant human N-terminal His-tagged full length PDK1 expressed in baculovirus infected Sf9 insect cells assessed as enzyme activity incubated for 15 mins by [gamma-33]ATP based scintillation counting method relative to control
T2 sequence (whole entry): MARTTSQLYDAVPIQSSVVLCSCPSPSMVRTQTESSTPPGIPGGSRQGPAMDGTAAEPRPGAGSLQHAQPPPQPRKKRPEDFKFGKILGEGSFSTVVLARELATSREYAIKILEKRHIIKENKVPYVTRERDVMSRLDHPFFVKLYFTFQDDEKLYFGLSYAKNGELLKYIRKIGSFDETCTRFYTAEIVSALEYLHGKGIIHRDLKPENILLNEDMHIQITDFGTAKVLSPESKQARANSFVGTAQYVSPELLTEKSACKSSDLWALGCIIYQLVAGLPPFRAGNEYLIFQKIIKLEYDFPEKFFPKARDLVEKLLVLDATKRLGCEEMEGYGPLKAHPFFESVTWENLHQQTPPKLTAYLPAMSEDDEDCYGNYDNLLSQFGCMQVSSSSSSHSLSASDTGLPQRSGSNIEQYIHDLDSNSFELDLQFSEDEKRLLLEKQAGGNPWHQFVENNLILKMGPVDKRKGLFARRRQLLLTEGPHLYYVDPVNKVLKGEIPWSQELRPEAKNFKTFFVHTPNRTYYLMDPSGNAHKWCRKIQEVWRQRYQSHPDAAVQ

[5] = target: T3, Rhodopsin kinase GRK1 (Homo sapiens) (UniProt Q15835); experiment: Inhibition of GRK1 (unknown origin) assessed as enzyme activity incubated for 15 mins by [gamma-33]ATP based scintillation counting method relative to control
T3 sequence (whole entry): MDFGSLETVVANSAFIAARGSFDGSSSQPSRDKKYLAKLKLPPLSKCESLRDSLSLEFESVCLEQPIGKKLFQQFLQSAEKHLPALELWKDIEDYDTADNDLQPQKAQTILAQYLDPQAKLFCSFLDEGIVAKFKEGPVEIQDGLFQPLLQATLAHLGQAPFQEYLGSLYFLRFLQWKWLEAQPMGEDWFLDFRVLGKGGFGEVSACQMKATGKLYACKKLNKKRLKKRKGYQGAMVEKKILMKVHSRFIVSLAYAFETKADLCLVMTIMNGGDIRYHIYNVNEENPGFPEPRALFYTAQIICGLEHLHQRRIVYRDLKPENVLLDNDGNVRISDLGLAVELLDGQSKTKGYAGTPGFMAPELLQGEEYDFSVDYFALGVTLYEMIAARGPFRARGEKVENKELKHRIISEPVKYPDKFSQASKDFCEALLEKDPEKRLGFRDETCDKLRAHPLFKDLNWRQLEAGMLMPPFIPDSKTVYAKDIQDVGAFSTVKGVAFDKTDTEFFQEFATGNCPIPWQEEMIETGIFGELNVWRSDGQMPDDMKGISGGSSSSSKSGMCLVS

[6] = target: T4, Serine/threonine-protein kinase Sgk1 (Homo sapiens) (UniProt O00141); experiment: Inhibition of recombinant human N-terminal GST-tagged SGK1 (60 to end residues) expressed in baculovirus infected Sf9 insect cells assessed as enzyme activity incubated for 15 mins by [gamma-33]ATP based scintillation counting method relative to control
T4 sequence (whole entry): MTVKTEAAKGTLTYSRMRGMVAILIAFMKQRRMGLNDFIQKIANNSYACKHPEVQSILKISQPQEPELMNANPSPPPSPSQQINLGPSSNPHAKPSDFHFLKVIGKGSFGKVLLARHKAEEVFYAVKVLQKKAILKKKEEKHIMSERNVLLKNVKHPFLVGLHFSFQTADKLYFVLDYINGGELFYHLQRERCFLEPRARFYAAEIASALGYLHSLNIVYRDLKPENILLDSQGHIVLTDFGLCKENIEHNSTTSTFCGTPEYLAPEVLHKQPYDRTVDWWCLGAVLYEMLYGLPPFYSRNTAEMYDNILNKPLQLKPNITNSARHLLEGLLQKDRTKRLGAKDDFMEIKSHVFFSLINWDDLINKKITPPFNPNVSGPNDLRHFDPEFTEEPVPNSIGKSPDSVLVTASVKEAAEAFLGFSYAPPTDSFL

Tyrosine-protein kinase Blk (Homo sapiens), sequence (P51451 2-505 limits assumed): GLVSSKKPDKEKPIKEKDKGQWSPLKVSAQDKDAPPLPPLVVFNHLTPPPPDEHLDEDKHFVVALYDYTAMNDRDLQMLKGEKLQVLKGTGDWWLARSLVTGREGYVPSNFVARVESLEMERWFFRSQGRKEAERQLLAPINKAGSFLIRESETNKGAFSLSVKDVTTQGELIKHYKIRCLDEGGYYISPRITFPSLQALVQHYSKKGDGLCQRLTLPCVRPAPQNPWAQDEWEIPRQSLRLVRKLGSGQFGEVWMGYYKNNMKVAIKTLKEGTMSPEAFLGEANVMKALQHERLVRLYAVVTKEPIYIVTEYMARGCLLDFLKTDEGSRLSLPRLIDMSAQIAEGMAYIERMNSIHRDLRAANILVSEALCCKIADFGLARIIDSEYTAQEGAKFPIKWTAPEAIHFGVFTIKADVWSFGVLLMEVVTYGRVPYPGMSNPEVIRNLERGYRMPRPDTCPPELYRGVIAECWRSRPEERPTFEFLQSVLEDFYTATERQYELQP
AMP-activated protein kinase (AMPK) alpha-1/beta-1/gamma-1 (Homo sapiens), sequence (P54619 whole entry): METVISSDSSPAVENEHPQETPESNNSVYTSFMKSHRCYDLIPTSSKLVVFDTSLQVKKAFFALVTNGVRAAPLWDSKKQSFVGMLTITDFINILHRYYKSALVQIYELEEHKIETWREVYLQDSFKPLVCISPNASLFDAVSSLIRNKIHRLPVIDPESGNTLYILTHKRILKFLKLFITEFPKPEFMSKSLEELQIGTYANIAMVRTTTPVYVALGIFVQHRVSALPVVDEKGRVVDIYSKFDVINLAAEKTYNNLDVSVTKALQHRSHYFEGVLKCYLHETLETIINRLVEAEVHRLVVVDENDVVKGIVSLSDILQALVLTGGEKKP
AMP-activated protein kinase (AMPK) alpha-1/beta-1/gamma-1 (Homo sapiens), sequence (Q13131 whole entry partner): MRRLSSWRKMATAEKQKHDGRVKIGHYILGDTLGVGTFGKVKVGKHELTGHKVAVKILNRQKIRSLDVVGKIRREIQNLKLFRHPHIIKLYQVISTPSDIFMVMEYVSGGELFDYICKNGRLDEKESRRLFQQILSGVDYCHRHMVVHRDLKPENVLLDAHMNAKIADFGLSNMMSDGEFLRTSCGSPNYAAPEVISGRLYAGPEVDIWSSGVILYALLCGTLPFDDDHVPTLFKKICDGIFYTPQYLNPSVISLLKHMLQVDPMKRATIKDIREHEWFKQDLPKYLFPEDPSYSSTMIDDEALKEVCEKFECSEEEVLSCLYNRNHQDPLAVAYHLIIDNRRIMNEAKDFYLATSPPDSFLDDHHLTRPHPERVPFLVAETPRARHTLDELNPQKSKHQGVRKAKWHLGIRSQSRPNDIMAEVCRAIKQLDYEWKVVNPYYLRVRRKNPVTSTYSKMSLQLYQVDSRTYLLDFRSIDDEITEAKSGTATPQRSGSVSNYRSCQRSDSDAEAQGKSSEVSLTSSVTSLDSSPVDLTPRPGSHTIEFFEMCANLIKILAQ
AMP-activated protein kinase (AMPK) alpha-1/beta-1/gamma-1 (Homo sapiens), sequence (Q9Y478 2-270 partner limits assumed): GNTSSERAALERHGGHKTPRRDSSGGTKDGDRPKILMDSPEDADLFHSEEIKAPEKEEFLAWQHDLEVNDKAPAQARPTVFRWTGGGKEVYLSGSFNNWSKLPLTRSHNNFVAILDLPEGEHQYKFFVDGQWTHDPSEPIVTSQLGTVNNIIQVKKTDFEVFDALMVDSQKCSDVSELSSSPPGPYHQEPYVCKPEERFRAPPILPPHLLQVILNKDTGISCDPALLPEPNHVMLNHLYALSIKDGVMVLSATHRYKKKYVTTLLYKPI

Row | Activity [1] | Activity [2] | Activity [3] | Activity [4] | Activity [5] | Activity [6] | SMILES
1 | 18% | -3% | -10% | 34% | 2% | 3% | Cc1ccc(NC(=O)c2ccc(CN3CCN(C)CC3)cc2)cc1Nc1nccc(-c2cccnc2)n1
2 | 2% | 26% | 38% | -11% | -9% | 8% | CCC1SCC(=O)N1c1c(C#N)c2n(c1C(=O)Nc1ccccc1)CCC2 (centres undefined)
3 | 12% | 7% | -25% | 28% | 1% | 7% | CC(C)C/C=N/c1c(C#N)c2n(c1C(=O)Nc1ccc(Br)cc1)CCC2
4 | -4% | -32% | 33% | -15% | -10% | -14% | CC/C=N/c1c(C#N)c2n(c1C(=O)Nc1ccccc1)CCC2
